Test results taken from US10711249B2, “Method for inducing hepatocytes” (KYOTO UNIVERSITY, priority 2014, dated 2020).
Counter-ions that a name gives are not always drawn.

How the values were obtained:
[1] = tested on: adrenergic α1 receptor; test: Mechanism study: albumin secretion with adrenergic receptor blocking agents added with methoxamine in Stage 3; assay type: cell-based, human; settings: 10 μM blocking agent added with methoxamine in Stage 3, 8 days
Procedure: To study the mechanism of methoxamine to increase the efficacy of hepatocyte induction, adrenergic receptor blocking agents against each adrenergic receptor were added and the secretions of albumin from the resulting cells were measured. […] Methoxamine and each adrenergic receptor blocking agent were added in Stage 3. The adrenergic receptor blocking agents used herein were as follows: 10 μM doxazosin (Sigma) as an α1 blocking agent; 10 μM yohimbine (Sigma) as an α2 blocking agent; and 10 μM metoprolol (Sigma) as a β1 blocking agent; and 10 μM butoxamine (Sigma) as a β2 blocking agent.

[2] = tested on: hepatoblasts induced from human iPS cells; test: Albumin secreted into the culture medium measured by ELISA; assay type: cell-based; settings: 1 μM in Stage 3, 8 days
Procedure: The effects of analogous compounds (adrenergic receptor agonist, in particular, an agent having α receptor stimulating action) serving as an alternative compound for a methoxamine hydrochloride were checked. […] Furthermore, the amount of albumin secreted from the obtained cell population into the culture mediumliquid was measured by ELISA.

[3] = tested on: cells obtained in Stage 2 (from human iPS cells); test: ICG (indocyanine green) uptake by induced cells; assay type: cell-based; settings: agent in Stage 3 for 8 days (methoxamine hydrochloride 1 μM; HGF and oncostatin M 20 ng/ml each); 1 mg/ml ICG, 1 hour
Procedure: (§1) 1 mg/ml ICG (indocyanine green) (Sigma) was added to each cell population and cultured for 1 hour. Then, ICG uptake by the cells was observed.

[4] = tested on: Mouse ES cells (D3 cell line); test: Mouse ES cell-derived cells immunostained with anti-albumin, anti-Cyp3a4 and anti-C/ebpβ antibodies; assay type: cell-based; settings: Stage 3, 8 days; compared with HGF+OsM
Procedure: The content ratio of Sox17-positive cells was determined.
The content ratio of AFP-positive cells was determined.
The cells were cultured for 8 days.
The cells cultured in the medium containing methoxamine in Stage 3 for 8 days, the cells cultured in the medium containing HGF+OsM (positive control) in the same manner as above and also the cells cultured in the medium containing DMSO (negative control) were used. These cells were immuno-stained with an anti-albumin antibody (Albumin), anti-Cyp3a4 antibody and anti-C/ebpβ antibody.

[5] = tested on: hepatoblasts induced from human iPS cells 201B6; test: Induction of albumin-positive cells in Stage 3 (anti-albumin immunostaining, albumin mRNA by quantitative PCR); assay type: cell-based
Procedure: The effects of analogous compounds (adrenergic receptor agonist, in particular, an agent having α receptor stimulating action) serving as an alternative compound for a methoxamine hydrochloride were checked. In Stage 3 as mentioned above, cells were cultured in a Hepatocyte Culture Medium (HCM SingleQuots Kit) supplemented with 1 μM etilefrine, phenylephrine or methoxamine hydrochloride for 8 days. The content ratio of albumin-positive cells and the mRNA expression level of albumin were measured in the same manner as above. […] Furthermore, the amount of albumin secreted from the obtained cell population into the culture mediumliquid was measured by ELISA.

[6] = tested on: cells obtained in Stage 2 (from human iPS cells); test: Oil Red staining of induced cells; assay type: cell-based; settings: agent in Stage 3 for 8 days
Procedure: as §1
The cells induced in the presence of HGF+OsM, methoxamine hydrochloride or DMSO and HepG2 were stained with Oil Red.

[7] = tested on: hepatocytes induced from human iPS cells; test: Gene expression profile by RNA sequencing analysis (PCA, liver marker heat map); assay type: cell-based
Description: The hepatocytes induced from human iPS cells were subjected to RNA sequencing analysis and gene expression profiles were compared.

[8] = tested on: cells obtained in Stage 2 (from human iPS cells); test: PAS staining of induced cells (glycogen accumulation); assay type: cell-based; settings: agent in Stage 3 for 8 days
Procedure: as §1
The cells induced in the presence of HGF+OsM, methoxamine hydrochloride or DMSO, and HepG2 were stained with PAS.

[9] = tested on: CYP1A1; test: Drug metabolizing enzyme induction reaction: CYP1A1 mRNA by quantitative PCR; assay type: in vitro ADME, human; settings: 100 μM omeprazole, 2 days
Procedure: A cell population obtained by culturing the cell population obtained in Stage 2 in a Hepatocyte Culture Medium (HCM SingleQuots Kit) supplemented with 20 ng/ml HGF and 20 ng/ml oncostatin M (HGF+OsM) for 8 days; and a cell population obtained by culturing the cell population obtained in Stage 2 in a Hepatocyte Culture Medium (HCM SingleQuots Kit) supplemented with 1 μM methoxamine hydrochloride for 8 days; Panc1 (human pancreatic cancer-derived cell line: Riken Bioresource Center); and HepG2 (human hepatocarcinoma-derived cell line) were used. Each of the cell populations was cultured in a Hepatocyte Culture Medium (HCM SingleQuots Kit) in the presence or absence of 100 μM omeprazole (Sigma) for 2 days, and thereafter, CYP1A1 mRNA expression level was measured by quantitative PCR. […] The amount of CYP1A1 mRNA relative to β actin mRNA was obtained and used as relative expression level of CYP1A1.

[10] = tested on: Mouse ES cells (D3 cell line); test: Induction of hepatocytes from mouse ES cells: expression of Tat, Cyp3a11, Cyp3a13; settings: 1 μM in Stage 3, 8 days; compared with HGF+OsM
[11] = tested on: CYP3A4; test: CYP3A4 expression in induced cells (immunostaining and quantitative PCR)
Procedure: A cell population obtained by culturing the cells obtained in Stage 2 in a Hepatocyte Culture Medium (HCM SingleQuots Kit) containing 20 ng/ml HGF and 20 ng/ml oncostatin M (HGF+OsM) for 8 days; a cell population obtained by culturing the cells obtained in Stage 2 in a Hepatocyte Culture Medium (HCM SingleQuots Kit) supplemented with 1 μM methoxamine hydrochloride for 8 days; a cell population obtained by culturing the cells obtained in Stage 2 in a Hepatocyte Culture Medium (HCM SingleQuots Kit) supplemented with 1 μM pregnenolone for 8 days; and a cell population obtained by culturing the cells obtained in Stage 2 in a Hepatocyte Culture Medium (HCM SingleQuots Kit) supplemented with DMSO for 8 days were immuno-stained with a CYP3A4 antibody (Proteintech Group) (FIG. 9A). […] CYP3A4mRNA expression levels were measured in these cell populations by quantitative PCR in the same manner as above.

COc1cc2nc(N3CCN(C(=O)C4COc5ccccc5O4)CC3)nc(N)c2cc1OC (centres unmarked) [doxazosin]
volume of albumin secretion [1]: decreased

CCNCC(O)c1cccc(O)c1 (centres unmarked) [etilefrine]
amount of albumin secreted into the culture medium (ELISA) [2]: cells having an ability to secrete albumin can be induced

COc1ccc(OC)c(C(O)C(C)N)c1 (centres unmarked) [methoxamine hydrochloride]
ICG uptake by the induced cells [3]: ICG uptake was observed
amount of albumin secreted into the culture medium (ELISA) [2]: cells having an ability to secrete albumin can be induced
immunostaining for Albumin, Cyp3a4 and C/ebpβ [4]: very similar expression was observed
concentration at which albumin-expressing cells were obtained (albumin mRNA, quantitative PCR) ([5]; Stage 3, 8 days, tested 0 M, 1 fM, 1 pM, 1 nM, 1 μM, 50 μM, 100 μM): ≥ 1 fM
Oil Red staining (lipid drops) of the induced cells [6]: accumulation of lipid drops was observed in some of the cells
gene expression profile compared with hepatocytes induced by HGF and OsM [7]: substantially the same gene expression profile
PAS staining (glycogen) of the induced cells [8]: stained red-purple

COc1ccc2[nH]c([S+]([O-])Cc3ncc(C)c(OC)c3C)nc2c1 (centres unmarked) [omeprazole]
CYP1A1 mRNA expression level ([9]; HepG2 cells): expression of CYP1A1 was induced
CYP1A1 mRNA expression level ([9]; cell population induced with 1 μM methoxamine hydrochloride in Stage 3): expression of CYP1A1 was induced
CYP1A1 mRNA expression level ([9]; cell population induced with HGF+OsM in Stage 3): expression of CYP1A1 was induced

CNC[C@H](O)c1cccc(O)c1 [phenylephrine]
amount of albumin secreted into the culture medium (ELISA) [2]: cells having an ability to secrete albumin can be induced

CC(=O)[C@H]1CC[C@H]2[C@@H]3CC=C4C[C@@H](O)CC[C@]4(C)[C@H]3CC[C@]12C [pregnenolone]
induction of albumin-positive cells at two concentrations ([5]; pregnenolone 150 nM and 1 μM in Stage 3): the same results were obtained
expression of Tat, Cyp3a11 and Cyp3a13 [10]: express the same drug metabolizing enzymes as in the case where HGF+OsM was used
CYP3A4 immunostaining of the induced cells ([11]; agent in Stage 3 for 8 days (1 μM; HGF and oncostatin M 20 ng/ml each)): Cells expressing CYP3A4 were found
CYP3A4 mRNA expression level (quantitative PCR) ([11]; agent in Stage 3 for 8 days, relative to cells induced with DMSO): intensively expressed
